Reference: the OPERA property sets (Mansouri et al. 2018)

Compound | logP
CCn1cccc(O)c1=O | 0.2
CCCn1cccc(O)c1=O | 0.69
CCCCOCc1cc(=O)c(O)co1 | 0.78
COCc1cc(=O)c(O)co1 | -0.62
NCCn1ccc(=O)c(O)c1 | -0.66
O=c1ccocc1O | -0.92
CCCOCc1cc(=O)c(O)co1 | 0.3

Now from value to compound:

logP | Compound
0.44 | Cc1cc(=O)c(O)c(C)o1
1.07 | CCc1oc(C)cc(=O)c1O
0.63 | CCc1occc(=O)c1O
-0.59 | Cc1cc(=O)c(O)co1
-0.38 | CCOCc1cc(=O)c(O)co1
